Like-named read-outs stand apart in the source and are kept apart here.
How the values were obtained:
5-HT2C receptor = target: T1, 5-HT2C receptor (Homo sapiens, UniProt P28335); test: cell-based
T1 construct: expressed in transfected cells; host or cells: HEK293T
T1 sequence (P28335 33-458): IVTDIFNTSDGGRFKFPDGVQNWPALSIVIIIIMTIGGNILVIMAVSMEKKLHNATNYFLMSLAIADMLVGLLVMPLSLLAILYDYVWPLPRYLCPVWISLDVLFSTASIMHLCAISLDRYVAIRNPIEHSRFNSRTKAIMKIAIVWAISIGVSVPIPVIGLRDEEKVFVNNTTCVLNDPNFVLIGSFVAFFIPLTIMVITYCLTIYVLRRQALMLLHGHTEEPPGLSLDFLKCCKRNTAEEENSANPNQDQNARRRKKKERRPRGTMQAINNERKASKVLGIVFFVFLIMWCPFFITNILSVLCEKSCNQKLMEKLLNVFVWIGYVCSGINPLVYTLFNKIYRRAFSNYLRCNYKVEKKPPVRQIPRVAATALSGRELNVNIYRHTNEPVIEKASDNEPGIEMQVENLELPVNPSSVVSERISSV

5-HT2A receptor = target: T2, 5-HT2A receptor (Homo sapiens, UniProt P28223); test: Serotonin receptor 5-HT2 functional assay (Gq dissociation BRET or Gq-dependent calcium flux), 5-HT2A; type: cell-based; conditions: for 5-HT2A BRET Eff %: efficacy relative to 4-hydroxytryptamine
T2 construct: expressed in transfected cells; host or cells: HEK293T
T2 sequence (P28223 whole entry): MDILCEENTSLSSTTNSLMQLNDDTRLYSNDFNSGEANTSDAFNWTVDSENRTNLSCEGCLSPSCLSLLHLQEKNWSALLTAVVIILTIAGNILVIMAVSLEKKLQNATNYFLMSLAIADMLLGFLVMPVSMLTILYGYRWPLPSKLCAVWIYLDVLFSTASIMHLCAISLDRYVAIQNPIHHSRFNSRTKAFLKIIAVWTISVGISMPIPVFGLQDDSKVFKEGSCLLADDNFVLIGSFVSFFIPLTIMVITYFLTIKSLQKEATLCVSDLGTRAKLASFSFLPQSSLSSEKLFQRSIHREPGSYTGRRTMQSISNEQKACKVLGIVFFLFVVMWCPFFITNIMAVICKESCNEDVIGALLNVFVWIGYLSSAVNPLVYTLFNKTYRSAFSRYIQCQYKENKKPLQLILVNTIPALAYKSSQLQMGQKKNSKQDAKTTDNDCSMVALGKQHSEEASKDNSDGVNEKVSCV

5-HT2B receptor = target: T3, 5-HT2B receptor (Homo sapiens, UniProt P41595); test: Serotonin receptor 5-HT2 functional assay (Gq dissociation BRET or Gq-dependent calcium flux), 5-HT2B; type: cell-based; conditions: Table 4, at least three replicate trials; for 5-HT2B BRET Eff %: efficacy relative to 4-hydroxytryptamine; for 5-HT2B BRET EC50 (nM) / EC50: relative to 4-hydroxytryptamine; for EC50: 5-HT2B BRET EC50 (nM)
T3 construct: expressed in transfected cells; host or cells: HEK293T
T3 sequence (P41595 whole entry): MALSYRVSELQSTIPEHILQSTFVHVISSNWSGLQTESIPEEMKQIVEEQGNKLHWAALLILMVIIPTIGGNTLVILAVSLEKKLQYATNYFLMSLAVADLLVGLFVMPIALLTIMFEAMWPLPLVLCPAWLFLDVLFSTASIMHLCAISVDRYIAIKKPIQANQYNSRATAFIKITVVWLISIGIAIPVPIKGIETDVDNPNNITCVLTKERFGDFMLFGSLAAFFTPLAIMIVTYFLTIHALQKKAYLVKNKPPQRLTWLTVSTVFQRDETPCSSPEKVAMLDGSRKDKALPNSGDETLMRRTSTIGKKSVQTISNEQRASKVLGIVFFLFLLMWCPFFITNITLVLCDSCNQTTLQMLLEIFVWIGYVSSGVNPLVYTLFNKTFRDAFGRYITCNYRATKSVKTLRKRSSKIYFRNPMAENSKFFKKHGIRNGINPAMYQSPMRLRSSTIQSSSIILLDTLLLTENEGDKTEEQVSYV

[1] = Table 4, at least three replicate trials

SMILES | 5-HT2C BRET Eff % (5-HT2C receptor) | EC50 (5-HT2C receptor) | EC50 (5-HT2A receptor) | 5-HT2A BRET Eff % (5-HT2A receptor; [1]) | 5-HT2B BRET Eff % (5-HT2B receptor) | 5-HT2B BRET EC50 (nM) (5-HT2B receptor) | EC50 (5-HT2B receptor) | 5-HT2C BRET Eff % (5-HT2C receptor; Table 4, efficacy relative to 4-hydroxytryptamine, at least three replicate trials) | EC50 (5-HT2C receptor; Table 4, relative to 4-hydroxytryptamine, at least three replicate trials, read-out: 5-HT2C BRET EC50) | EC50 (5-HT2A receptor; Table 4, relative to 4-hydroxytryptamine, at least three replicate trials, read-out: 5-HT2A BRET EC50)
COc1ccc(C)c2[nH]cc(CCN(C)C)c12 [Compound 26, [2-(4-Methoxy-7-methylindol-3-yl)ethyl]dimethylamine] | 113% | 0.0035 µM | 0.095 µM | 68% | inactive | inactive |  |  |  | 
Cc1c(F)cc(O)c2c(CCN(C)C)c[nH]c12 [Compound 33, 3-[2-(Dimethylamino)ethyl]-6-fluoro-7-methylindol-4-ol] | 102% | 0.0014 µM | 0.02 µM | 78% | inactive | inactive |  |  |  | 
COc1cc(F)c(C)c2[nH]cc(CCN(C)C)c12 [Compound 34, [2-(6-Fluoro-4-methoxy-7-methylindol-3-yl)ethyl]dimethylamine] | 94% | 0.0018 µM | 0.0169 µM | 84% | inactive | inactive |  |  |  | 
CN(C)CCc1c[nH]c2cc(F)cc(O)c12 [Compound 36, 3-[2-(Dimethylamino)ethyl]-6-fluoroindol-4-ol] | 93% | 0.0017 µM | 0.0029 µM | 92% | 62% |  | 4.2 nM |  |  | 
Cc1cc(O)c2c(CCN(C)C)c[nH]c2c1 [Compound 37, 3-[2-(Dimethylamino)ethyl]-6-methylindol-4-ol] | 95% | 0.0015 µM | 0.059 µM | 88% | 41% |  | 189 nM |  |  | 
Cc1ccc(OCc2ccc(C(F)(F)F)cc2)c2c(CCN(C)C)c[nH]c12 [Compound 39, Dimethyl[2-[7-methyl-4-[4-(trifluoromethyl)benzyloxy]indol-3-yl]ethyl]amine] |  |  |  | 90% | inactive | inactive |  | 81% | 0.131 µM | 7.66 µM

From patent publication US20250059217A1, “HETEROCYCLIC COMPOUNDS AND METHODS OF PREPARATION THEREOF” (priority 2021, published 2025)
